Non-standard residues stand in square brackets, D forms with d. Residues, ends and D or L forms follow the SMILES beside them. Groups on a side chain read outwards from the residue. No end group written: not given here. Phe(4-NH2) = Nc1ccc(C[C@H](N)C(=O)O)cc1; Aze = O=C(O)[C@@H]1CCN1; Nleu = CC(C)CNCC(=O)O; Aib = CC(C)(N)C(=O)O
Columns and labels:
[1] = Rate of model dipeptide cleavage from model hexapeptide in PBS (HPLC); conditions: buffer
Method: (§1) The solution was incubated at 37° C. […] The dipeptide cleavage was quenched by lowering the pH with an equal volume of 0.1% TFA. The rate of cleavage was qualitatively monitored by LC-MS and quantitatively studied by HPLC. The retention time and relative peak area for the prodrug and the parent model peptide were quantified using Peak Simple Chromatography software.
(§2) The flow rate was 1 ml/min. Solvent A contained 0.1% TFA in distilled water, and solvent B contained 0.1% TFA in 90% CH3CN. A linear gradient was employed (0% to 30% B in 10 minutes). The data were collected and analyzed using Peak Simple Chromatography software.
(§3) The rate of cleavage was determined for the respective propeptides. The concentrations of the propeptides and the model parent peptide were determined by their respective peak areas. The first order dissociation rate constants of the prodrugs were determined by plotting the logarithm of the concentration of the prodrug at various time intervals. The slope of this plot provides the rate constant ‘k’.

[2] = physchem; conditions: buffer
Method: as §1, §2, §3

[3] = target: Insulin Receptor (Homo sapiens, UniProt P06213); assay: Insulin receptor binding assay (competition, scintillation proximity); conditions: compared with native insulin
[4] = in vitro; assay type: in vitro ADME; conditions: plasma
[5] = Dipeptide half life on IGF1 dipeptide extended (p-NH2-F)A19 amide derivatives in PBS (HPLC); assay type: physicochemical; conditions: buffer, pH 7.4
Method: IGF-1 peptides was measured to determine the impact of the peptide sequence or heteroduplex on the dipeptide cleavage.
Accordingly, the IGF1A chain alone was determined to be a good model for the study of pro-drug half life on IGF1 B:A (Y^B16L^B17) derivative peptides. […] For simplicity, prodrug half lives were determined using only the IGF1 A chain in the absence of the B chain. The half lives of each propeptide was determined as described in Example 5.
The IGF^B16B17 derivative peptide prodrugs were incubated in PBS, pH 7.4 at 37° C. and at predetermined time intervals an aliquot was taken and further degradation was quenched with 0.1% TFA and the aliquot was subjected to analytical HPLC analysis. Peaks a and b, representing the prodrug and active forms of the IGF^B16B17 derivative peptide were identified with LC-MS and quantified by integration of peak area an HPLC. FIGS. 9A-9C show the output of an HPLC analysis of the degradation of the IGF^B16B17 derivativepeptide prodrug: IGF1A(Ala)^6,7,11,20(Aib-Pro-pNH-F)^19. Aliquots were taken at 20 minutes (FIG. 9A), 81 minutes (FIG. 9B) and 120 minutes (FIG. 9C) after beginning the incubation of the prodrug in PBS.

[6] = target: human IGF-1 receptor (human, UniProt P08069 31-1367); assay: cell-based or functional assay

Chain of Insulin Receptor (P06213 28-758 limits assumed): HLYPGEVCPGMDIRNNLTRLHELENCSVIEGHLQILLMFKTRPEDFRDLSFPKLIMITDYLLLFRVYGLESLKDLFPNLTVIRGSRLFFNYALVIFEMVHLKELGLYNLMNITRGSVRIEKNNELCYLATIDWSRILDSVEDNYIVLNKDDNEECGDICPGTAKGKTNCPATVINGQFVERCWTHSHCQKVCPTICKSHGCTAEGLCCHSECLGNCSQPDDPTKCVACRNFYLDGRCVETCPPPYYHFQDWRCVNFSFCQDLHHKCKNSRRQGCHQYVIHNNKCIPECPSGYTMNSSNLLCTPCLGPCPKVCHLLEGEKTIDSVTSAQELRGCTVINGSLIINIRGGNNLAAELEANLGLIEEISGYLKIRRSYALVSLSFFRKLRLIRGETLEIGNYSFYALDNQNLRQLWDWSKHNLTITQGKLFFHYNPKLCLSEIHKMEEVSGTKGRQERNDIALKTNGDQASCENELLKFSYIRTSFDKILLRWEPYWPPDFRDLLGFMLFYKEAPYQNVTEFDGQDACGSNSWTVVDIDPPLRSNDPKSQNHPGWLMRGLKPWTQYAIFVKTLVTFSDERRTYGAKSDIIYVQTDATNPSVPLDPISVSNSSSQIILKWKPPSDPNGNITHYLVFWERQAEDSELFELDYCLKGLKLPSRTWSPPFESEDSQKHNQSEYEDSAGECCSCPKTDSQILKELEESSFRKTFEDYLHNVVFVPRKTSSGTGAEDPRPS
Chain of Insulin Receptor (P06213 763-1382 partner limits assumed): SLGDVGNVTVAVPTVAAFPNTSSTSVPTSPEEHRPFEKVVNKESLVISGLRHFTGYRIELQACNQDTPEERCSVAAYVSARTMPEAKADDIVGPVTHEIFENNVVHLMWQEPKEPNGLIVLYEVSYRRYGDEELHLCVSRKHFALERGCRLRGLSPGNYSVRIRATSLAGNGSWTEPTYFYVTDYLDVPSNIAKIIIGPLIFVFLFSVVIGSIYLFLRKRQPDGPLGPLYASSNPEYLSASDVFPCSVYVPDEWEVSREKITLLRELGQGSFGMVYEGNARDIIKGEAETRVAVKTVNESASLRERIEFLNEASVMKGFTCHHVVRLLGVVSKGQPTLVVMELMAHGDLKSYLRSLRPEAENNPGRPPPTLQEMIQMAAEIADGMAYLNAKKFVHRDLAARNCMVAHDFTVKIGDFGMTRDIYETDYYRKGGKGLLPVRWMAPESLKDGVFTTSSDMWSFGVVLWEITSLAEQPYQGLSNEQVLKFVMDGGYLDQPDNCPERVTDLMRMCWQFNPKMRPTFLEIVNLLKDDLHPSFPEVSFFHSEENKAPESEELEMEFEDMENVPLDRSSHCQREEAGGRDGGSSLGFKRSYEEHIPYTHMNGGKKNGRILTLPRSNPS

Question: With `C[C@@H](O)[C@H](NC(=O)CNC(=O)[C@H](CCCNC(=N)N)NC(=O)[C@H](CO)NC(=O)[C@H](Cc1c[nH]cn1)NC(=O)[C@H](C)N(C)C(=O)[C@H](N)CCCCN)C(=O)N[C@@H](Cc1ccccc1)C(N)=O` [Compound 31] as the molecule, how does the half-life at 1 mg/ml [1] read?
Answer: 14 h

Question: For `C[C@@H](O)[C@H](NC(=O)CNC(=O)[C@H](CCCNC(=N)N)NC(=O)[C@H](CO)NC(=O)[C@H](Cc1c[nH]cn1)NC(=O)[C@H](Cc1ccccc1)N(C)C(=O)[C@H](N)CCCCN)C(=O)N[C@@H](Cc1ccccc1)C(N)=O` [Compound 32], which half-life at 1 mg/ml [1] is on record?
Answer: 57 h

Question: Which half-life at 1 mg/ml [2] does the source give for `C[C@@H](O)[C@H](NC(=O)CNC(=O)[C@H](CCCNC(=N)N)NC(=O)[C@H](CO)NC(=O)[C@H](Cc1c[nH]cn1)NC(=O)[C@@H]1CCN1C(=O)C(C)(C)N)C(=O)N[C@@H](Cc1ccccc1)C(N)=O` [Compound 26] (H-[Aib][Aze]HSRGTF-NH2) here?
Answer: > 500 h

Question: With `CC[C@H](C)[C@H](NC(=O)CNC(=O)[C@@H]1CCCN1C(=O)[C@H](C)N)C(=O)N[C@H](C(=O)N[C@@H](CC(=O)O)C(=O)N[C@@H](CCC(=O)O)C(=O)N[C@H]1CSSC[C@@H]2NC(=O)[C@H](CO)NC(=O)[C@H](CCCNC(=N)N)NC(=O)[C@H](Cc3ccccc3)NC(=O)[C@H](CSSC[C@H](NC(=O)[C@H](CC(C)C)NC(=O)[C@@H](NC(=O)[C@H](CCC(=O)O)NC(=O)[C@@H]3CCCN3C(=O)CN)[C@@H](C)O)C(=O)NCC(=O)N[C@@H](C)C(=O)N[C@@H](CCC(=O)O)C(=O)N[C@@H](CC(C)C)C(=O)N[C@@H](C(C)C)C(=O)N[C@@H](CC(=O)O)C(=O)N[C@@H](C)C(=O)N[C@@H](CC(C)C)C(=O)N[C@@H](Cc3ccc(O)cc3)C(=O)N[C@@H](CC(C)C)C(=O)N[C@@H](C(C)C)C(=O)N[C@H](C(=O)NCC(=O)N[C@@H](CC(=O)O)C(=O)N[C@@H](CCCNC(=N)N)C(=O)NCC(=O)N[C@@H](Cc3ccccc3)C(=O)N[C@@H](Cc3ccc(O)cc3)C(=O)N[C@@H](Cc3ccccc3)C(=O)N[C@@H](CC(N)=O)C(=O)N[C@@H](CCCCN)C(=O)N3CCC[C@H]3C(=O)N[C@H](C(N)=O)[C@@H](C)O)CSSC[C@@H](C(=O)N[C@@H](C)C(N)=O)NC(=O)[C@H](Cc3ccc(O)cc3)NC(=O)[C@H](CCSC)NC(=O)[C@H](CCC(=O)O)NC(=O)[C@H](CC(C)C)NC(=O)[C@H](CCCNC(=N)N)NC(=O)[C@H](CCCNC(=N)N)NC(=O)[C@H](CC(C)C)NC(=O)[C@H](CC(=O)O)NC2=O)NC1=O)C(C)C` [IGF1(Y^B16L^B17)(AlaPro)^A-1,0] as the molecule, how does the “insulin receptor binding, in words” value [3] read?
Answer: substantially reduced affinity for the insulin receptor

Question: For `CC[C@H](C)[C@H](NC(=O)CN)C(=O)N[C@H](C(=O)N[C@@H](CC(=O)O)C(=O)N[C@@H](CCC(=O)O)C(=O)N[C@@H](C)C(=O)N[C@@H](C)C(=O)N[C@@H](Cc1ccccc1)C(=O)N[C@@H](CCCNC(=N)N)C(=O)N[C@@H](CO)C(=O)N[C@@H](C)C(=O)N[C@@H](CC(=O)O)C(=O)N[C@@H](CC(C)C)C(=O)N[C@@H](CCCNC(=N)N)C(=O)N[C@@H](CCCNC(=N)N)C(=O)N[C@@H](CC(C)C)C(=O)N[C@@H](CCC(=O)O)C(=O)N[C@@H](CCSC)C(=O)N[C@@H](Cc1ccc(NC(=O)CN(CC(C)C)C(=O)[C@H](N)CCCCN)cc1)C(=O)N[C@@H](C)C(=O)N[C@@H](C)C(N)=O)C(C)C` [dK N-isobutyl Gly] (H-GIVDEAAFRSADLRRLEM[Phe(4-NH2)]([Nleu-dK])AA-NH2), which half-life [4] is on record?
Answer: 4.1 h

Question: And the half-life [5]?
Answer: 4.4 h

B1: IGF-1 A (H8 A9 N21):B(H5D10Y16L17 A22) DPI A-COOH (ligand)
chain 1: GIVDECCHASCDLRRLEMYCN-OH
chain 2: GPEHLCGADLVDALYLVCGDAGFY
modifications: not fully specified (bridges); cysteine pairing not given here
Question: With B1 as the molecule, how does the “% IGF” value [6] read?
Answer: 7.7%

Reference: patent US20110245164A1 (INDIANA UNIVERSITY RESEARCH AND TECHNOLOGY, published 2011)
